Earlier results on eleven compounds are cited in patent US20040142847A1, “Detergent tablets with polyurethane coating” (priority 2002, published 2004).

The conditions of series [1]: for amount of the anhydrous salt that dissolves in 100 g of water: per 100 g of water.
The conditions of series [2]: 1% strength solution at 25°.
The conditions of series [3]: after heating the solution at 100° C. for two hours.
[4] abbreviates: 20° C., listing of preferred solubilizers.
[5] abbreviates: 20° C., listing of suitable solubilizers.
The mark [6] stands for this setting: 25° C., listing of preferred solubilizers.

≈ marks a conversion by molar mass, not a printed value. Read-outs that look alike come from different tables or passages of the source.

On to `O=C(O)CC(O)C(=O)O` (racemic) [DL-Malic acid], for which the solubility in water in series [1] (26° C., listing of preferred solubilizers) was 1440 mg/mL (≈ 10700 mM); in series [1] (26° C., listing of suitable solubilizers), 1440 mg/mL (≈ 10700 mM).

With `[Cl-].[Cs+]` [Cesium chloride], the solubility in water in series [1] (setting [4]) and in series [1] (setting [5]) was 1800 mg/mL each time.

As to `O=C[C@H](O)[C@@H](O)[C@@H](O)[C@H](O)CO` [D(+)-Galactose], the solubility in water in series [1] (setting [6]) is 680 mg/mL (≈ 3770 mM).

On to `O=C(CO)[C@@H](O)[C@H](O)[C@@H](O)CO` [L(−)-sorbose], for which the solubility in water in series [1] (17° C., listing of preferred solubilizers) was 550 mg/mL (≈ 3050 mM).

Consider `O=C(O)/C=C\C(=O)O` [Maleic acid], for which the solubility in water in series [1] (setting [6]) was 788 mg/mL (≈ 6790 mM).

For `[Cl-].[K+]` [Potassium chloride], the solubility in water in series [1] (setting [4]) and in series [1] (setting [5]) was 340 mg/mL each time.

Consider `O=P([O-])([O-])OP(=O)([O-])[O-].[K+].[K+].[K+].[K+]` [Potassium diphosphate], for which the “pH of the 1% strength solution” value in series [2] is 10.4.

For the compound `NC(N)=O` [Urea], the solubility in water in series [1] (setting [4]) and in series [1] (setting [5]) was 1080 mg/mL (≈ 18000 mM) throughout.

Take `[Cl-].[Cl-].[Zn+2]` [Zinc chloride]: the solubility in water in series [1] (setting [4]) and in series [1] (setting [5]) was 3680 mg/mL in each case.

On to `O=P([O-])([O-])OP(=O)([O-])OP(=O)([O-])[O-].[Na+].[Na+].[Na+].[Na+].[Na+]` [pentasodium triphosphate], for which the “amount of the anhydrous salt that dissolves in 100 g of water” value in series [1] (60°) is “about 20 g”; in series [1] (100°) it was “around 32 g”; in series [1] (room temperature), “About 17 g”. In series [3], the “diphosphate produced by hydrolysis” value is recorded as ~15%. Also, in series [3], the “orthophosphate produced by hydrolysis” value was “about 8%”.

Regarding Sodium polyphosphate, the solubility in water in series [1] (setting [5]) was 1000 mg/mL.
